{"source": "patent US20230288411A1", "about": "“POLYPEPTIDE, MULTIMER, SOLID PHASE, MEASUREMENT METHOD FOR TEST SUBSTANCE, AND REAGENT KIT” (SYSMEX CORPORATION, priority 2020, published 2023)", "key": {"D-biotin-labeled albumin": {"system": "D-biotin-labeled albumin", "experiment": "SPR (Biacore T200) binding evaluation to D-biotin-labeled albumin", "design": "species or system bovine", "details": "analyte flowed at 30 μL/min up to 100 nM, single cycle method, albumin immobilized on sensor chip", "description": "(§1) A binding ability of D-streptavidin obtained in Example 1 to D-biotin as a natural form and L-biotin as an optical isomer of D-biotin was evaluated by an intermolecular interaction analyzer (Biacore T200) using SPR as a measurement principle.\nAn N,N-dimethylformamide solution (16.3 μL) containing 10 mg/mL D-biotin-AC5-OSu (manufactured by DOJINDO LABORATORIES) was added to 2.8 mL of 50 mg/mL bovine serum albumin/0.1 M phosphate buffer solution (pH 7.5), and the mixture was stirred, then allowed to stand at 35° C. for 1 hour. Thereafter, desalting was performed by PD-10 (17085101, manufactured by Cytiva) equilibrated with a 0.1 M phosphate buffer (pH 7.5), and D-biotin-labeled albumin was recovered. The number of labeled D-biotin per molecule of albumin by HABA method was 0.4.\nBovine serum albumin was immobilized on flow cells 1 and 3 of a CMS sensor chip (manufactured by Cytiva) of a Biacore T200 system at a target level of 400 RU by an amine coupling method with an amine coupling kit (Cytiva). […]\n(§2) Using HBS-EP+(manufactured by Cytiva) as a running buffer, the prepared D-tamavidin (trademark) 2 was flowed into each flow cell at a flow rate of 30 μL/min in the range of 100 pM to 100 nM by a single cycle method, and binding and dissociation to D-biotin or L-biotin was evaluated by Biacore T200 Evaluation Software (manufactured by Cytiva)."}, "L-biotin-labeled albumin": {"system": "L-biotin-labeled albumin", "experiment": "SPR (Biacore T200) binding evaluation to L-biotin-labeled albumin", "design": "species or system bovine", "details": "analyte flowed at 30 μL/min up to 100 nM, single cycle method, albumin immobilized on sensor chip", "description": "as §1\nSimilarly, L-biotin-labeled albumin was prepared using L-biotin-AC5-OSu [see (Amidation of L-biotin) described in Example 3 above].\nBovine serum albumin was immobilized on flow cells 1 and 3 of a CMS sensor chip (manufactured by Cytiva) of a Biacore T200 system at a target level of 400 RU by an amine coupling method with an amine coupling kit (Cytiva). Further, L-biotin-labeled albumin and D-biotin-labeled albumin were immobilized at a target level of 400 RU to flow cells 2 and 4, respectively, similarly by an amine coupling method. Blocking was performed in each flow cell with 1 M ethanolamine solution, pH 8.5 (manufactured by Cytiva). […]\nas §2"}}, "data": [{"substance": "D-streptavidin: tetrameric polypeptide of 13th to 139th amino acids of SEQ ID NO: 1 composed of D-amino acid residues", "values": [{"measurement": "binding to D-biotin-labeled albumin (SPR sensorgram)", "setting": "D-biotin-labeled albumin", "result": "not substantially bound"}, {"measurement": "binding to L-biotin-labeled albumin (SPR sensorgram)", "setting": "L-biotin-labeled albumin", "result": "very strongly bound"}]}, {"substance": "natural core streptavidin: commercially available tetrameric natural core streptavidin (manufactured by Roche) [reference compound]", "values": [{"measurement": "binding to D-biotin-labeled albumin (SPR sensorgram)", "setting": "D-biotin-labeled albumin", "result": "very strongly bound"}]}]}
